Results reported in US10703735B2, “4-phenyl-coumarin derivatives, processes for their preparation and uses thereof for the treatment of cancer” (Lead Discovery Center GmbH, priority 2018, dated 2020).

Assays:
[1] = target: mitochondrial RNA-polymerase (POLRMT) (Mus musculus, UniProt Q8BKF1); test: Homogeneous TR-FRET assay for mitochondrial transcription activity; assay type: biochemical; conditions: homogeneous TR-FRET assay according to Example 4; read-out: mitochondrial transcription activity (IC-50)
Chain of mitochondrial RNA-polymerase (POLRMT) (Q8BKF1 42-1207): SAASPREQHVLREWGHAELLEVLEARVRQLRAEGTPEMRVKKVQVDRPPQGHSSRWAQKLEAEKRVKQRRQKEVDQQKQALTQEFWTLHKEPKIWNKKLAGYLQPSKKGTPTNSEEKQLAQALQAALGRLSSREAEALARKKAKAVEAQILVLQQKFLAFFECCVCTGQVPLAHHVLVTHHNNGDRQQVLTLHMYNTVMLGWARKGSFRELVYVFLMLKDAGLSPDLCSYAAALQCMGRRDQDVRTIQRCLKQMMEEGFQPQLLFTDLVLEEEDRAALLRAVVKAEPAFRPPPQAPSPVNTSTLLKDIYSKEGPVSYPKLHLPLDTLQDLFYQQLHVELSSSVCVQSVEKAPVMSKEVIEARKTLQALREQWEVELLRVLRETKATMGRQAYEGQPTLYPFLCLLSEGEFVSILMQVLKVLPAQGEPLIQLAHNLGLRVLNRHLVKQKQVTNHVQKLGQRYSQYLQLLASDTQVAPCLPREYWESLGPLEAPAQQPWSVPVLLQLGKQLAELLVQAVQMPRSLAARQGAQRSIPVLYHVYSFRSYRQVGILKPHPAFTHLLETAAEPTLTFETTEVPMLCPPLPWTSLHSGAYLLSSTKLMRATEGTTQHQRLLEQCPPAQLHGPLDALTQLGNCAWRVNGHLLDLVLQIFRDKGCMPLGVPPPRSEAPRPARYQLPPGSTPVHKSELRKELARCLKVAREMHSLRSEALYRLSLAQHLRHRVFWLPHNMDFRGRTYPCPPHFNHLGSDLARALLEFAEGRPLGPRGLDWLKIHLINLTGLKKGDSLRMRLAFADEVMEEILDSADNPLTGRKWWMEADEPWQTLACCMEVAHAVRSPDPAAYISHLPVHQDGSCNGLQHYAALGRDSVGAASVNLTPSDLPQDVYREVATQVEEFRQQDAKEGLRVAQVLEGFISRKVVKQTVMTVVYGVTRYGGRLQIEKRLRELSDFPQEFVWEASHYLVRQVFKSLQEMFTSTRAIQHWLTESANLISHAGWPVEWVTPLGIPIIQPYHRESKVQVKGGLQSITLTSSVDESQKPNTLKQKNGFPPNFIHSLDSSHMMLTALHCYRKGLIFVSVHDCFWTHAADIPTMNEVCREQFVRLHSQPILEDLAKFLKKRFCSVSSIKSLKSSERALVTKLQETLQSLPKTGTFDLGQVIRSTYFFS
Excerpt: The TR-FRET assay was basically conducted as described in WO 2016/193231A1, especially as described in example 1 (hereby incorporated by reference). With respect to the background of the mitochondrial transcription it is referred to Falkenberg et al. (2002) and Posse et al. (Posse et al. 2015). The method monitors the activity of mitochondrial RNA-polymerase via detection of the formation of its product, a 407 bp long RNA sequence. Detection of the product is facilitated by hybridization of two DNA-oligonucleotide probes to specific and adjacent sequences within the RNA product sequence. Upon annealing of the probes, two fluorophores that are coupled directly to an acceptor nucleotide probe (ATT0647, 5′) or introduced via a coupled streptavidin interacting with a biotinylated donor nucleotide probe on the other side (Europium cryptate, 3) are brought into sufficient proximity to serve as a fluorescence-donor-acceptor pair as generally described in Walters and Namchuk (2003). Thus, a FRET signal at 665 nm is generated upon excitation at 340 nm.
Briefly, the protocol described here was applied for screening and activity determination in a low-volume 384-well microtiter plate with non-binding surface. For high-throughput application in the 1536-well microtiter plate format, volumes of the reagent mixes were adjusted, maintaining the volumetric ratio. Proteins POLRMT (NM_172551.3), TFAM (NM_009360.4) and TFB2M (NM_008249.4) were diluted from their stocks to working concentrations of 150 nM, 1.8 μM and 330 nM respectively, in a dilution buffer containing 100 mM Tris-HCl pH 8.0, 200 mM NaCl, 10% (v/v) glycerole, 2 mM glutathione (GSH), 0.5 mM EDTA and 0.1 mg/mL BSA. Protein dilutions and template DNA, comprising a pUC18 plasmid encoding the mitochondrial light strand promoter, restriction linearized proximal to the promoter 3′-end (pUC-LSP), were mixed at the twofold final assay-concentration in a reaction buffer, containing 10 mM Tris-HCl pH 7.5, 10 mM MgCl2, 40 mM NaCl, 2 mM GSH, 0.01% (w/v) Tween-20 and 0.1 mg/mL BSA.
5 μL of this mix were dispensed, depending on the chosen microtiter plate format, using multi-channel pipettes or a Multidrop® dispenser (Thermo Fisher Scientific, Waltham Mass.) into the wells of a microtiter plate and incubated at room temperature (RT) for 10 min. Chemical compounds under scrutiny in the assay were applied using contact-free acoustic droplet-dispensing (Echo520® Labcyte Inc., Sunnyvale Calif.) from 10 mM compound stocks in 100% DMSO, to a final concentration of 10 μM or in serial dilution series of the required concentration range. Equal amounts of DMSO without any compound were added to positive control samples, followed by an incubation step at RT for 10 min.
The enzymatic reaction was started by the addition of 5 μL of a mix of dNTPs in reaction buffer to a final concentration of 500 μM each. No nucleotide mix was added to negative control samples. The content of the wells was mixed using a VarioTeleshaker™ (Thermo Fisher Scientific, Waltham Mass.) at 1500 rpm for 45 sec after which the microtiter plate was centrifuged at 500×g for 1 min. The samples were incubated for 2 h at RT with humidity control to avoid evaporation. The detection reagents were prepared in a buffer that was composed, such that the enzymatic reaction was terminated due to chelating of Mg-ions and increased ionic strength, containing 50 mM Tris-HCl pH 7.5, 700 mM NaCl, 20 mM EDTA, and 0.01% (w/v) Tween-20. Importantly Eu-cryptate-coupled streptavidin had to be preincubated with a 100-fold molar excess of a random sequence oligonucleotide for 10 min at RT in the dark to block unspecific binding of single stranded RNA to the protein. Subsequently, the blocked streptavidin(-Eu) was mixed with the DNA-probes on ice and kept away from light until use. […]

[2] = system: mitochondrial transcription (7S RNA) in HeLa cells; test: Quantitative real time-PCR assay of inhibition of mitochondrial transcription (7S RNA) in HeLa cells; assay type: cell-based; conditions: Homo sapiens, 4 h incubation, Example 5, read-out: cellular qPCR assay IMT (IC-50)
Method: Quantitative real-time PCR (qRT-PCR), based on the TaqMan™ (Thermo Fisher Scientific, Waltham Mass.) technology, was carried out essentially as described in (Heid et al. 1996). HeLa cells were plated one day before compound treatment in RPMI medium supplemented with 10% Fetal Calf Serum and 2 mM L-glutamine. Cells were incubated with dilution series of compounds or vehicle (DMSO) for 4 h, prior to harvest and extraction of the RNA using the RNeasy Mini Kit (Qiagen, Hilden D), according to the manufacturer's instructions. RNA concentrations were measured spectroscopically, using a NanoDrop-2000 (Thermo Fisher Scientific, Waltham Mass.) and normalized prior to cDNA synthesis, using a ‘High-Capacity cDNA Reverse Transcription Kit’ (Thermo Fisher Scientific, Waltham Mass.). qRT-PCR was carried out using the ‘TaqMan Fast Advance Master Mix’ (Thermo Fisher Scientific, Waltham Mass.) on a 7500 Fast Real-Time PCR machine (Applied Biosystems, Foster City Calif.)
For these measurements, three genes were used to compare the effect of the scrutinized compounds in relation to their concentration. The POLRMT-gene was used to detect potential influences on nuclear transcription. Mitochondrial transcription in vivo was monitored by measurements 7S RNA. The TBP (TATA-box binding protein) gene was employed as the control (housekeeping gene) during qRT-PCR. The short-lived mitochondrial 7S RNA, which is not post-transcriptionally stabilized, allowed us to monitor rapid changes in mitochondrial transcription activity following compound addition. Biological triplicates were analyzed using the comparative CT Method (ΔΔCt) method (Bubner et al. 2004) and reported as Rq % values (Rq=Relative quantification=2-ΔΔCt).

Row | Compound | IC50 [1] [µM] | IC50 [2] [µM]
1 | O=C(COc1cc2oc(=O)cc(-c3ccccc3)c2cc1Cl)NC1CCCCCCC1 [Compound 86, 2-(6-chloro-2-oxo-4-phenyl-chromen-7-yl)oxy-N-cyclooctyl-acetamide] | 1 to 10 | 
2 | CCOC(=O)C(C)Oc1cc(F)c2c(-c3ccccc3)cc(=O)oc2c1 (stereo not drawn) [Compound 87, ethyl 2-(5-fluoro-2-oxo-4-phenyl-chromen-7-yl)oxypropanoate] | 1 to 10 | 
3 | O=C(O)COc1cc2oc(=O)cc(-c3ccccc3)c2cc1Cl [Compound 88, 2-(6-chloro-2-oxo-4-phenyl-chromen-7-yl)oxyacetic acid] | 1 to 10 | 
4 | CC(Oc1cc2oc(=O)cc(-c3ccccc3)c2cc1Cl)C(=O)NC[C@H]1CC[C@H](C(=O)O)CC1 (stereo partly drawn) [Compound 89, 4-[[2-(6-chloro-2-oxo-4-phenyl-chromen-7-yl)oxypropanoylamino]methyl]cyclohexanecarboxylic acid] | 1 to 10 | 
5 | O=C(COc1cc2oc(=O)cc(-c3ccccc3)c2cc1Cl)NCC(O)c1ccccc1 (stereo not drawn) [Compound 90, 2-(6-chloro-2-oxo-4-phenyl-chromen-7-yl)oxy-N-(2-hydroxy-2-phenyl-ethyl)acetamide] | 1 to 10 | 
6 | COC(=O)COc1ccc2c(-c3ccccc3)cc(=O)oc2c1C [Compound 91, methyl 2-(8-methyl-2-oxo-4-phenyl-chromen-7-yl)oxyacetate] | 1 to 10 | 
7 | CCCOC(=O)COc1cc2oc(=O)cc(-c3ccccc3)c2cc1Cl [Compound 92, propyl 2-(6-chloro-2-oxo-4-phenyl-chromen-7-yl)oxyacetate] | 1 to 10 | 
8 | CC(Oc1ccc2c(-c3ccccc3)cc(=O)oc2c1)C(=O)OCc1ccccc1 (stereo not drawn) [Compound 93, benzyl 2-(2-oxo-4-phenyl-chromen-7-yl)oxypropanoate] | 1 to 10 | 
9 | Cc1c(OCC(=O)OC(C)(C)C)ccc2c(-c3ccccc3)cc(=O)oc12 [Compound 94, tert-butyl 2-(8-methyl-2-oxo-4-phenyl-chromen-7-yl)oxyacetate] | 1 to 10 | 
10 | O=C(COc1cc2oc(=O)cc(-c3ccccc3)c2cc1Cl)NC1C=CS(=O)(=O)C1 (stereo not drawn) [Compound 95, 2-(6-chloro-2-oxo-4-phenyl-chromen-7-yl)oxy-N-(1,1-dioxo-2,3-dihydrothiophen-3-yl)acetamide] | 1 to 10 | 
11 | CC(Oc1ccc2c(-c3ccccc3)cc(=O)oc2c1)C(=O)NC(C(=O)O)c1ccccc1 (stereo not drawn) [Compound 96, 2-[2-(2-oxo-4-phenyl-chromen-7-yl)oxypropanoylamino]-2-phenyl-acetic acid] | 1 to 10 | 
12 | CCCc1cc2c(-c3ccccc3)cc(=O)oc2cc1OC(C)C(=O)O (stereo not drawn) [Compound 97, 2-(2-oxo-4-phenyl-6-propyl-chromen-7-yl)oxypropanoic acid] | 1 to 10 | 
13 | O=C(COc1cc2oc(=O)cc(-c3ccccc3)c2cc1Cl)NC[C@H]1CC[C@H](C(=O)O)CC1 [Compound 98, 4-[[[2-(6-chloro-2-oxo-4-phenyl-chromen-7-yl)oxyacetyl]amino]methyl]cyclohexanecarboxylic acid] | 1 to 10 | 
14 | O=C(COc1cc2oc(=O)cc(-c3ccccc3)c2cc1Cl)NCc1ccccn1 [Compound 99, 2-(6-chloro-2-oxo-4-phenyl-chromen-7-yl)oxy-N-(2-pyridylmethyl)acetamide] | 1 to 10 | 

The next lines start with the values.

Row | IC50 [1] [µM] | IC50 [2] [µM] | Compound
15 | 0.1 to 1 | < 0.01 | CC(Oc1ccc2c(-c3ccccc3)cc(=O)oc2c1)C(=O)OC(C)(C)C (stereo not drawn) [Compound 1, tert-butyl 2-(2-oxo-4-phenyl-chromen-7-yl)oxypropanoate]
16 | 0.1 to 1 | 0.01 to 0.05 | CC(Oc1ccc2c(-c3ccccc3)cc(=O)oc2c1)C(=O)N(C)C (stereo not drawn) [Compound 2, N,N-dimethyl-2-(2-oxo-4-phenyl-chromen-7-yl)oxy-propanamide]
17 | 0.02 to 0.1 | 0.01 to 0.05 | CCOC(=O)C(C)Oc1ccc2c(-c3cccc(F)c3)cc(=O)oc2c1 (stereo not drawn) [Compound 7, ethyl 2-[4-(3-fluorophenyl)-2-oxo-chromen-7-yl]oxypropanoate]
18 | 0.1 to 1 | 0.05 to 0.5 | CC(C)NC(=O)C(C)Oc1ccc2c(-c3ccccc3)cc(=O)oc2c1 (stereo not drawn) [Compound 12, N-isopropyl-2-(2-oxo-4-phenyl-chromen-7-yl)oxy-propanamide]
19 | 0.1 to 1 | 0.05 to 0.5 | COC(=O)C1CCCN(C(=O)C(C)Oc2ccc3c(-c4ccccc4)cc(=O)oc3c2)C1 (stereo not drawn) [Compound 15, methyl 1-[2-(2-oxo-4-phenyl-chromen-7-yl)oxypropanoyl]piperidine-3-carboxylate]
20 | < 0.02 | < 0.01 | CC(Oc1ccc2c(-c3ccccc3)cc(=O)oc2c1)C(=O)N1CCCC(C#N)C1 (stereo not drawn) [Compound 19, 1-[2-(2-oxo-4-phenyl-chromen-7-yl)oxypropanoyl]piperidine-3-carbonitrile]
21 | 1 to 10 | 0.05 to 0.5 | CCNC(=O)C(C)Oc1ccc2c(-c3ccccc3)cc(=O)oc2c1 (stereo not drawn) [Compound 30, N-ethyl-2-(2-oxo-4-phenyl-chromen-7-yl)oxy-propanamide]
22 | 0.1 to 1 | 0.05 to 0.5 | CC(Oc1ccc2c(-c3ccccc3)cc(=O)oc2c1)C(=O)N1CCCC1 (stereo not drawn) [Compound 31, 7-(1-methyl-2-oxo-2-pyrrolidin-1-yl-ethoxy)-4-phenyl-chromen-2-one]
23 | 1 to 10 |  | CC(Oc1cc(F)c2c(-c3ccccc3)cc(=O)oc2c1)C(=O)N(C)C (stereo not drawn) [Compound 80, 2-(5-fluoro-2-oxo-4-phenyl-chromen-7-yl)oxy-N,N-dimethyl-propanamide]
24 | 1 to 10 |  | CCOC(=O)COc1ccc2c(-c3ccccc3)cc(=O)oc2c1 [Compound 81, ethyl 2-(2-oxo-4-phenyl-chromen-7-yl)oxyacetate]
25 | 1 to 10 |  | CC(C)(C)OC(=O)COc1cc2oc(=O)cc(-c3ccccc3)c2cc1Cl [Compound 82, tert-butyl 2-(6-chloro-2-oxo-4-phenyl-chromen-7-yl)oxyacetate]
26 | 1 to 10 |  | O=C(COc1cc2oc(=O)cc(-c3ccccc3)c2cc1Cl)NCCN1CCOCC1 [Compound 83, 2-(6-chloro-2-oxo-4-phenyl-chromen-7-yl)oxy-N-(2-morpholinoethyl)acetamide]
27 | 1 to 10 |  | NC(=O)COc1cc2oc(=O)cc(-c3ccccc3)c2cc1Cl [Compound 84, 2-(6-chloro-2-oxo-4-phenyl-chromen-7-yl)oxyacetamide]
28 | 1 to 10 |  | O=C(O)C1CCCN(C(=O)COc2cc3oc(=O)cc(-c4ccccc4)c3cc2Cl)C1 (stereo not drawn) [Compound 85, 1-[2-(6-chloro-2-oxo-4-phenyl-chromen-7-yl)oxyacetyl]piperidine-3-carboxylic acid]
